Data as given in patent US10070645B2, “N-cycloalkyl-N-{[2-(1-substitutedcycloalkyl)phenyl]methylene}-(thio)carboxamide derivatives” (BAYER CROPSCIENCE AKTIENGESELLSCHAFT, priority 2013, dated 2018).

Assay: log P by HPLC on a reversed-phase column (C 18), EEC Directive 79/831 Annex V.A8
Assay type: physicochemical
Details: HPLC on reversed-phase column (C 18), 40° C., 0.1% aqueous formic acid and acetonitrile, linear gradient 10% to 90% acetonitrile
Experimental: In table 1, the log P values were determined in accordance with EEC Directive 79/831 Annex V.A8 by HPLC (High Performance Liquid Chromatography) on a reversed-phase column (C 18), using the method described below:
Temperature: 40° C.; Mobile phases: 0.1% aqueous formic acid and acetonitrile; linear gradient from 10% acetonitrile to 90% acetonitrile.
Calibration was carried out using unbranched alkan-2-ones (comprising 3 to 16 carbon atoms) with known log P values (determination of the log P values by the retention times using linear interpolation between two successive alkanones). lambda-max-values were determined using UV-spectra from 200 nm to 400 nm and the peak values of the chromatographic signals.

Compound	logP
Cn1nc(C(F)F)c(C(=O)N(Cc2cc(F)ccc2C2(C)CC2(Cl)Cl)C2CC2)c1Cl (racemic) [I.171]	4.21
Cn1nc(C(F)F)c(C(=O)N(Cc2cc(Cl)ccc2C2(C(F)(F)F)CC2)C2CC2)c1F [I.163]	4.13
Cc1ccc(C2(C)CC2(Cl)Cl)c(CN(C(=O)c2c(C(F)F)nn(C)c2Cl)C2CC2)c1Cl (racemic) [I.177]	4.78
Cn1nc(C(F)F)c(C(=O)N(Cc2cc(Cl)ccc2C2(C(F)(F)F)CC2)C2CC2)c1Cl [I.164]	4.30
Cc1ccc(C2(C(F)(F)F)CC2)c(CN(C(=O)c2c(C(F)F)nn(C)c2F)C2CC2)c1 [I.167]	4.11
Cn1nc(C(F)F)c(C(=O)N(Cc2cc(C3CC3)ccc2C2(C)CC2(Cl)Cl)C2CC2)c1F (racemic) [I.169]	4.59
Cn1nc(C(F)F)c(C(=O)N(Cc2c(C3(C)CC3(Cl)Cl)ccc(Cl)c2F)C2CC2)c1Cl (racemic) [I.175]	4.61
Cn1nc(C(F)F)c(C(=O)N(Cc2c(C3(C)CC3(Cl)Cl)ccc(Cl)c2Cl)C2CC2)c1Cl (racemic) [I.174]	4.81
Cn1nc(C(F)F)c(C(=O)N(Cc2cc(F)ccc2C2(C(F)(F)F)CC2)C2CC2)c1F [I.165]	3.83
CC(C)CC1(c2cc(Cl)ccc2CN(C(=O)c2c(C(F)F)nn(C)c2Cl)C2CC2)CC1 [I.158]	5.59

Same assay, conditions: HPLC, reversed-phase column (C 18), 40° C., 0.1% aqueous formic acid and acetonitrile, linear gradient 10% to 90% acetonitrile

Compound	logP
Cn1nc(C(F)F)c(C(=O)N(Cc2ccccc2C2(C(F)F)CC2)C2CC2)c1Cl [I.143]	3.46
Cn1nc(C(F)F)c(C(=O)N(Cc2cc(F)c(F)cc2C2(C)CC2)C2CC2)c1Cl [I.049]	4.16
COC1(c2ccc(-c3ccoc3)cc2CN(C(=O)c2c(C(F)F)nn(C)c2F)C2CC2)CC1 [I.125]	3.80
CCC1(c2ccccc2CN(C(=S)c2c(C(F)F)nn(C)c2Cl)C2CC2)CC1 [I.099]	5.00
Cn1nc(C(F)F)c(C(=O)N(Cc2cc(Cl)ccc2C2(C)CC2)C2CC2)c1Cl [I.061]	4.44
Cn1nc(C(F)F)c(C(=S)N(Cc2cccc(F)c2C2(C)CC2)C2CC2)c1Cl [I.011]	4.64
Cc1ccccc1-c1ccc(CN(C(=O)c2c(C(F)F)nn(C)c2F)C2CC2)c(C2(C)CC2)c1 [I.035]	5.26
COC1(c2ccc(C(C)C)cc2CN(C(=O)c2c(C(F)F)nn(C)c2F)C2CC2)CC1 [I.121]	4.29
CCC1(c2ccc(C)cc2CN(C(=O)c2c(C(F)F)nn(C)c2F)C2CC2)CC1 [I.113]	4.61
Cn1nc(C(F)F)c(C(=S)N(Cc2ccc(F)cc2C2(C)CC2)C2CC2)c1Cl [I.024]	4.74
Cn1nc(C(F)F)c(C(=O)N(Cc2ccc(-c3cccnc3)cc2C2(C)CC2)C2CC2)c1F [I.044]	2.35
CCC1(c2cc(C(F)(F)F)ccc2CN(C(=O)c2c(C(F)F)nn(C)c2F)C2CC2)CC1 [I.100]	4.75
Cc1ccc(C2(Cl)CC2)c(CN(C(=O)c2c(C(F)F)nn(C)c2Cl)C2CC2)c1 [I.133]	4.06
Cc1ccc(C2(C)CC2)c(CN(C(=O)c2c(C(F)F)nn(C)c2F)C2(C)CC2)c1 [I.075]	4.51
C=C(C)c1cccc(CN(C(=O)c2c(C(F)F)nn(C)c2F)C2CC2)c1C1(C)CC1 [I.015]	4.64
C=Cc1ccc(C2(C)CC2)c(CN(C(=O)c2c(C(F)F)nn(C)c2F)C2CC2)c1 [I.080]	4.34
Cc1cc(CN(C(=O)c2c(C(F)F)nn(C)c2F)C2CC2)c(C2(C)CC2)cc1C [I.051]	4.36
CCC1(c2ccccc2CN(C(=O)c2c(C(F)F)nn(C)c2Cl)C2CC2)CC1 [I.097]	4.34
Cc1ccc(C2(C)CC2)c(CN(C(=O)c2c(C(F)F)nn(C)c2Cl)C2(C#N)CC2)c1 [I.078]	3.87
C#CC1(c2ccc(C)cc2CN(C(=O)c2c(C(F)F)nn(C)c2F)C2CC2)CC1 [I.092]	3.68
Cn1nc(C(F)F)c(C(=O)N(Cc2ccc(-c3ccoc3)cc2C2(C)CC2)C2CC2)c1F [I.039]	4.23
Cn1nc(C(F)F)c(C(=O)N(Cc2c(Br)cccc2C2(C(F)F)CC2)C2CC2)c1Cl [I.156]	3.87
Cn1nc(C(F)F)c(C(=O)N(Cc2ccc(-c3ccc4ncccc4c3)cc2C2(C)CC2)C2CC2)c1F [I.046]	3.09

Compound	logP
Cn1nc(C(F)F)c(C(=O)N(Cc2ccc(-c3ccc(F)c(F)c3)cc2C2(C)CC2)C2CC2)c1F [I.036]	5.03
Cc1ccc(C2(C)CC2)c(CN(C(=S)c2c(C(F)F)nn(C)c2Cl)C2CC2)c1 [I.074]	4.98
CCC1(c2cc(C)c(F)cc2CN(C(=O)c2c(C(F)F)nn(C)c2Cl)C2CC2)CC1 [I.107]	4.85
Cc1ccc(C2(C)CC2)c(CN(C(=O)c2c(C(F)F)nn(C)c2F)C2(C#N)CC2)c1 [I.076]	3.73
CCC1(c2cc(Cl)ccc2CN(C(=O)c2c(C(F)F)nn(C)c2F)C2CC2)CC1 [I.102]	4.67
CCC1(c2cccc(F)c2CN(C(=O)c2c(C(F)F)nn(C)c2Cl)C2CC2)CC1 [I.115]	4.34
Cn1nc(C(F)F)c(C(=O)N(Cc2cc(C3CC3)ccc2C2(C(F)F)CC2)C2CC2)c1F [I.150]	3.94
CCCC1(c2ccc(C)cc2CN(C(=O)c2c(C(F)F)nn(C)c2Cl)C2CC2)CC1 [I.131]	5.19
Cn1nc(C(F)F)c(C(=O)N(Cc2ccc(-c3ccc(F)cc3)cc2C2(C)CC2)C2CC2)c1F [I.041]	4.96
CCC1(c2ccc(C(F)(F)F)cc2CN(C(=O)c2c(C(F)F)nn(C)c2F)C2CC2)CC1 [I.108]	4.67
CCOC1(c2ccc(C)cc2CN(C(=O)c2c(C(F)F)nn(C)c2F)C2CC2)CC1 [I.139]	4.06
COc1ccc(CN(C(=O)c2c(C(F)F)nn(C)c2Cl)C2CC2)c(C2(C)CC2)c1 [I.029]	3.83
Cn1nc(C(F)F)c(C(=O)N(Cc2c(C3(C)CC3)ccc(Cl)c2F)C2CC2)c1F [I.084]	4.24
COc1ccc(CN(C(=S)c2c(C(F)F)nn(C)c2Cl)C2CC2)c(C2(C)CC2)c1 [I.031]	4.51
Cc1ccc(C2(Cl)CC2)c(CN(C(=O)c2c(C(F)F)nn(C)c2F)C2CC2)c1 [I.132]	3.89
CC(C)c1ccc(CN(C(=O)c2c(C(F)F)nn(C)c2F)C2CC2)c(C2(C)CC2)c1 [I.025]	4.90
Cn1nc(C(F)F)c(C(=O)N(Cc2ccccc2C2(C)CC2)C2CC2)c1Cl [I.002]	4.01
Cn1nc(C(F)F)c(C(=O)N(Cc2cc(Br)ccc2C2(C(F)F)CC2)C2CC2)c1Cl [I.147]	3.92
Cn1nc(C(F)F)c(C(=S)N(Cc2cc(Cl)ccc2C2(C)CC2)C2CC2)c1Cl [I.063]	5.03
Cn1nc(C(F)F)c(C(=S)N(Cc2ccccc2C2(C)CC2)C2CC2)c1F [I.003]	4.46
Cc1ccc(C2(C)CC2)c(CN(C(=O)c2c(C(F)F)nn(C)c2F)C2CC2)c1Cl [I.086]	4.51
COc1cc(CN(C(=S)c2c(C(F)F)nn(C)c2Cl)C2CC2)c(C2(C)CC2)cc1OC [I.056]	4.09
COC1(c2ccc(C)cc2CN(C(=O)c2c(C(F)F)nn(C)c2Cl)C2CC2)CC1 [I.123]	3.74

Same assay, conditions: Table 3 (amines of formula II); HPLC C 18, 40° C., 0.1% aqueous formic acid and acetonitrile

Compound	logP
Fc1ccc(C2(C(F)F)CC2)c(CNC2CC2)c1 [II.39, N-{2-[1-(difluoromethyl)cyclopropyl]-5-fluorobenzyl}cyclopropanamine]	1.08

Same assay, conditions: Table 4 (aldehydes of formula IV); HPLC C 18, 40° C., 0.1% aqueous formic acid and acetonitrile

Compound	logP
1-(2-formyl-4-methylphenyl)cyclopropanecarbonitrile [IV.16]	2.08
3-fluoro-2-(1-methylcyclopropyl)benzaldehyde [IV.14]	3.13

Same assay, conditions: reversed-phase HPLC column (C 18); Table 3 (amines of formula II); HPLC C 18, 40° C., 0.1% aqueous formic acid and acetonitrile

Compound	chromatographic logP
CC1(c2c(F)cccc2CNC2CC2)CC1 [II.02, N-[3-fluoro-2-(1-methylcyclopropyl)benzyl]cyclopropanamine]	1.36
Cc1ccc(CNC2CC2)c(C2(C)CC2)c1 [II.05, N-[4-methyl-2-(1-methylcyclopropyl)benzyl]cyclopropanamine]	1.43
FC(F)C1(c2cccc(Br)c2CNC2CC2)CC1 [II.41, N-{2-bromo-6-[1-(difluoromethyl)cyclopropyl]benzyl}cyclopropanamine]	1.1
N#CC1(c2ccc(Cl)cc2CNC2CC2)CC1 [II.20, 1-{4-chloro-2-[(cyclopropylamino)methyl]phenyl}cyclopropanecarbonitrile]	0.77
CCC1(c2cc(C)c(F)cc2CNC2CC2)CC1 [II.27, N-[2-(1-ethylcyclopropyl)-5-fluoro-4-methylbenzyl]cyclopropanamine]	1.69
CCC1(c2cc(C(F)(F)F)ccc2CNC2CC2)CC1 [II.24, N-[2-(1-ethylcyclopropyl)-4-(trifluoromethyl)benzyl]cyclopropanamine]	1.95
CC1(c2c(CNC3CC3)ccc3c2OCO3)CC1 [II.03, N-{[4-(1-methylcyclopropyl)-1,3-benzodioxol-5-yl]methyl}cyclopropanamine]	1.43

Same assay, conditions: reversed-phase HPLC column (C 18); Table 4 (aldehydes of formula IV); HPLC C 18, 40° C., 0.1% aqueous formic acid and acetonitrile

Compound	chromatographic logP
Cc1ccc(C2(C)CC2)c(C=O)c1 [IV.12, 5-methyl-2-(1-methylcyclopropyl)benzaldehyde]	3.55
COc1cc(C=O)c(C2(C)CC2)cc1OC [IV.08, 4,5-dimethoxy-2-(1-methylcyclopropyl)benzaldehyde]	2.56

Same assay, conditions: reversed-phase HPLC column (C 18); preparation examples

Compound	chromatographic logP
C=C(C)c1ccc(Cl)cc1Br [2-bromo-4-chloro-1-(prop-1-en-2-yl)benzene]	4.91
Fc1ccc(C2(C(F)F)CC2)c(CNC2CC2)c1 [II.39, N-{2-[1-(difluoromethyl)cyclopropyl]-5-fluorobenzyl}cyclopropanamine]	1.08
